In article PMC9008208 (Frontiers in Cellular Neuroscience, 2022) one finds EC50 data, which are given here for one molecule.

One assay deals with T1, α9α10 nAChR (Homo sapiens, UniProt Q9GZZ6+Q9UGM1).
T1 construct: gene CHRNA9; with nAChR subunit α10 (CHRNA10)
Nature of the assay: two-electrode voltage clamp, Xenopus oocytes, concentration-response (partial agonist). Format: cell-based.

A further assay has as its target T2, α9 nAChR (Homo sapiens, UniProt Q9UGM1).
T2 construct: gene CHRNA9
The assay is described as above. Format: cell-based.

T2 sequence (Q9UGM1 23-479): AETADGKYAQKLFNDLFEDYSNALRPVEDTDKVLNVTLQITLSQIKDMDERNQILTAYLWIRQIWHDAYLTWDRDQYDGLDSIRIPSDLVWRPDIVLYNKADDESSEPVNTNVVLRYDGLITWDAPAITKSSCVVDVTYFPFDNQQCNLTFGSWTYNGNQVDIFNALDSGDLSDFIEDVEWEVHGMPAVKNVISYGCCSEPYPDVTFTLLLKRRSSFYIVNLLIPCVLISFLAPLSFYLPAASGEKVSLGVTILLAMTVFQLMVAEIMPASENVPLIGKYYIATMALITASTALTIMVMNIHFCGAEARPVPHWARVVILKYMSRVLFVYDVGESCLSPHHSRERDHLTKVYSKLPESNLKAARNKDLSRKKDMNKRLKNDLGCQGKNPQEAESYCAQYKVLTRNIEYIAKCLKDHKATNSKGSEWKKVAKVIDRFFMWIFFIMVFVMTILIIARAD
T1 sequence (Q9UGM1 23-479): as above
T1 sequence (Q9GZZ6 25-450): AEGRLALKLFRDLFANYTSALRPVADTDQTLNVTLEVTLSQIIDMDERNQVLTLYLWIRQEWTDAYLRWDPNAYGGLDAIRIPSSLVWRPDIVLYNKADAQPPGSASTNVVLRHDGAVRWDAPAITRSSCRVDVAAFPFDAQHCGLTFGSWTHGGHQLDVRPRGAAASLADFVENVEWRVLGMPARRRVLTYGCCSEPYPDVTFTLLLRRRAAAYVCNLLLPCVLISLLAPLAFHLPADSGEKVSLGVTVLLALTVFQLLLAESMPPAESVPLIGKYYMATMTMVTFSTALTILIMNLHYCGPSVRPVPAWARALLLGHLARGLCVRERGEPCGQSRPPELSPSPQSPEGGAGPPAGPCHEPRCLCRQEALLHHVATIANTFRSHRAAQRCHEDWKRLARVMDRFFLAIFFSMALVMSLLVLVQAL

For the molecule `CC[N+]1(CC)CCN(c2ccc(C(F)(F)F)cc2)CC1` [pCF3-diEPP], the half-maximal effective concentration (EC50) is 6.4 µM on α9α10 nAChR and 7 µM on α9 nAChR.
